Measurements reported in US20110130426A1, “Novel Sulphonamide Derivatives as Glucocorticoid Receptor Modulators for the Treatment of Inflammatory Diseases” (ASTRAZENECA AB, priority 2004, published 2011).

Biological target: T1, recombinant human GR (Homo sapiens, UniProt P04150)
T1 construct: purchased Panvera/Invitrogen P2812 (kit P2893)
T1 sequence (P04150 1-777): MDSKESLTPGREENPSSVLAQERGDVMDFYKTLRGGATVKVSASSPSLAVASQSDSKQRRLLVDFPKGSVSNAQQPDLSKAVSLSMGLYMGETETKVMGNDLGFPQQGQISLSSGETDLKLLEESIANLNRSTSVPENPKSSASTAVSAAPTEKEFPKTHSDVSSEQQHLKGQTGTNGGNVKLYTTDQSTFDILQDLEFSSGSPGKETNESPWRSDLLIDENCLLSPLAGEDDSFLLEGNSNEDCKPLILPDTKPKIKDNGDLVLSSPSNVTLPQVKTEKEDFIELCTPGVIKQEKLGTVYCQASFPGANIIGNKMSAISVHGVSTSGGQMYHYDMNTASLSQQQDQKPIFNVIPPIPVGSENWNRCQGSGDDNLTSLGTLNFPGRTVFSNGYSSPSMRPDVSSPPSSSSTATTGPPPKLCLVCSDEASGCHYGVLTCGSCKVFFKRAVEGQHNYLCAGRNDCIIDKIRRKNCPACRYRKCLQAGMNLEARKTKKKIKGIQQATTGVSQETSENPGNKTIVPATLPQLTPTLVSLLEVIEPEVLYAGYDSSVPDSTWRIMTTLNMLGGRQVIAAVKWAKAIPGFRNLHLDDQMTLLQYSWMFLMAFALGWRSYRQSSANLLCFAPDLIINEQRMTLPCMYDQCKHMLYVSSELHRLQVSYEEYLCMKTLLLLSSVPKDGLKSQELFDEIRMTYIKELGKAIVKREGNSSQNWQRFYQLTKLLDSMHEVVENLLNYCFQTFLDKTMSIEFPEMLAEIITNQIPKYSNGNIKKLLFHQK
Assay: Human Glucocorticoid Receptor (GR) Assay, fluorescence polarization
Type: binding
Details: GS Red tracer, 2 hours at room temperature
Description: Human Glucocorticoid Receptor (GR) Assay
The assay is based on a commercial kit from Panvera/Invitrogen (Part number P2893). The assay technology is fluorescence polarization. The kit utilises recombinant human GR (Panvera, Part number P2812), a Fluoromone™ labelled tracer (GS Red, Panvera, Part number P2894) and a Stabilizing Peptide 10X (Panvera, Part number P2815). The GR and Stabilizing Peptide reagents are stored at −70° C. while the GS Red is stored at −20° C. Also included in the kit are 1M DTT (Panvera, Part number P2325, stored at −20° C.) and GR Screening buffer 10X (Panvera, Part number P2814, stored at −70° C. initially but once thawed stored at room temperature). Avoid repeated freeze/thaws for all reagents. The GR Screening buffer 10X comprises 100 mM potassium phosphate, 200 mM sodium molybdate, 1 mM EDTA and 20% DMSO.
Test compounds (1 μL) and controls (1 μL) in 100% DMSO were added to black polystyrene 384-well plates (Greiner low volume black flat-bottom, part number 784076). 0% control was 100% DMSO and 100% control was 10 μM Dexamethasone. Background solution ([…]; assay buffer 10X, Stabilizing Peptide, DTT and ice cold MQ water) was added to the background wells. GS Red solution (7 μL; assay buffer 10X, Stabilizing Peptide, DTT, GS Red and ice cold water) was added to all wells except background wells. GR solution (7 μL; assay buffer 10X, Stabilizing Peptide, DTT, GR and ice cold water) was added to all wells. The plate was sealed and incubated in a dark at room temperature for 2 hours. The plate was read in an Analyst plate reader (LJL Biosystems/Molecular Devices Corporation) or other similar plate reader capable of recording fluorescence polarization (excitation wavelength 530 nm, emission wavelength […] and a dichroic mirror at 561 nm). The IC50 values were calculated using XLfit model 205.

Molecule | IC50
Cc1c(S(=O)(=O)Nc2cccc(CCc3ccccn3)c2)cnn1-c1ccccc1 [Example 22, 5-Methyl-1-phenyl-N-[3-(2-pyridin-2-ylethyl)phenyl]-1H-pyrazole-4-sulfonamide] | 99 nM
N-{[5-(4-Chlorophenyl)-2-thienyl]methyl}-4-(pyridin-2-yloxy)benzenesulfonamide [Example 25] | 170 nM
COc1ccc(S(=O)(=O)NCc2ccc(-c3ccc(Cl)cc3)s2)cc1 [Example 26, N-{[5-(4-Chlorophenyl)-2-thienyl]methyl}-4-methoxybenzenesulfonamide] | 200 nM
Cc1nn(C(F)F)c(C)c1S(=O)(=O)Nc1cccc(CCc2ccccn2)c1 [Example 36, 1-(Difluoromethyl)-3,5-dimethyl-N-[3-(2-pyridin-2-ylethyl)phenyl]-1H-pyrazole-4-sulfonamide] | 810 nM
COc1cccc(S(=O)(=O)NCc2ccc(-c3ccc(Cl)cc3)s2)c1 [Example 30, N-{[5-(4-Chlorophenyl)-2-thienyl]methyl}-3-methoxybenzenesulfonamide] | 310 nM
O=[N+]([O-])c1ccc(S(=O)(=O)NCc2ccc(-c3ccc(Cl)cc3)s2)cc1 [Example 20, N-{[5-(4-Chlorophenyl)-2-thienyl]methyl}-4-nitrobenzenesulfonamide] | 59 nM
Cn1nc(-c2ccc(S(=O)(=O)Nc3cccc(CCc4ccccn4)c3)s2)cc1C(F)(F)F [Example 23, 5-[1-Methyl-5-(trifluoromethyl)-1H-pyrazol-3-yl]-N-[3-(2-pyridin-2-ylethyl)phenyl]-thiophene-2-sulfonamide] | 110 nM
N-{[5-(4-Chlorophenyl)-2-thienyl]methyl}-3-(4-methylphenoxy)benzenesulfonamide [Example 32] | 390 nM
Cc1onc(-c2ccccc2)c1CNS(=O)(=O)c1ccc(-c2ccc(F)cc2)cc1 [Example 2, 4′-Fluoro-biphenyl-4-sulfonic acid (5-methyl-3-phenyl-isoxazol-4-ylmethyl)-amide] | 35 nM
COc1cc(C)c(S(=O)(=O)NCc2c(-c3ccccc3)noc2C)c(C)c1C [Example 1, 4-Methoxy-2,3,6-trimethyl-N-(5-methyl-3-phenyl-isoxazol-4-ylmethyl)-benzenesulfonamide] | 14 nM
O=S(=O)(NCc1ccc(-c2ccc(Cl)cc2)s1)c1ccc(F)cc1 [Example 21, N-{[5-(4-Chlorophenyl)-2-thienyl]methyl}-4-fluorobenzenesulfonamide] | 62 nM
Cc1cc(C)c(S(=O)(=O)NCc2ccc(-c3ccc(Cl)cc3)s2)c(C)c1 [Example 19, N-{[5-(4-Chlorophenyl)-2-thienyl]methyl}-2,4,6-trimethylbenzenesulfonamide] | 36 nM
Cc1onc(-c2ccccc2)c1CNS(=O)(=O)c1ccc(-c2ccccc2)cc1 [Example 5, Biphenyl-4-sulfonic acid (5-methyl-3-phenyl-isoxazol-4-ylmethyl)-amide] | 370 nM
CCCCOc1ccc(S(=O)(=O)NCc2c(-c3ccccc3)noc2C)cc1 [Example 6, 4-n-Butoxy-N-(5-methyl-3-phenyl-isoxazol-4-ylmethyl)-benzenesulfonamide] | 700 nM
O=S(=O)(NCc1ccc(-c2ccc(Cl)cc2)s1)c1ccccc1Br [Example 24, 2-Bromo-N-{[5-(4-chlorophenyl)-2-thienyl]methyl}benzenesulfonamide] | 170 nM
O=S(=O)(Cc1ccc(Cl)cc1)NCc1ccc(-c2ccc(Cl)cc2)s1 [Example 34, 1-(4-Chlorophenyl)-N-{[5-(4-chlorophenyl)-2-thienyl]methyl}methanesulfonamide] | 660 nM
Cc1cc(S(=O)(=O)Nc2cccc(CCc3ccccn3)c2)c(C)o1 [Example 35, 2,5-Dimethyl-N-[3-(2-pyridin-2-ylethyl)phenyl]furan-3-sulfonamide] | 710 nM
Cc1cc(C)cc(S(=O)(=O)Nc2cccc(CCc3ccccn3)c2)c1 [Example 29, 3,5-Dimethyl-N-[3-(2-pyridin-2-ylethyl)phenyl]benzenesulfonamide] | 230 nM
Cc1cc(S(=O)(=O)Nc2cccc(CCc3ccccn3)c2)c(C)s1 [Example 28, 2,5-dimethyl-N-[3-(2-pyridin-2-ylethyl)phenyl]thiophene-3-sulfonamide] | 220 nM
Cc1ccc(C)c(S(=O)(=O)Nc2cccc(CCc3ccccn3)c2)c1 [Compound 49] | 350 nM
COc1cc(C)c(S(=O)(=O)NCc2ccc(-c3ccc(Cl)cc3)s2)c(C)c1C [Example 31, N-{[5-(4-Chlorophenyl)-2-thienyl]methyl}-4-methoxy-2,3,6-trimethylbenzenesulfonamide] | 330 nM
N#Cc1cccc(S(=O)(=O)NCc2ccc(-c3ccc(Cl)cc3)s2)c1 [Example 37, N-{[5-(4-Chlorophenyl)-2-thienyl]methyl}-3-cyanobenzenesulfonamide] | 820 nM
O=S(=O)(Nc1cccc(CCc2ccccn2)c1)c1ccc(-c2ccccn2)s1 [Example 27, 5-Pyridin-2-yl-N-[3-(2-pyridin-2-ylethyl)phenyl]thiophene-2-sulfonamide] | 200 nM
O=S(=O)(Nc1cccc(CCc2ccccn2)c1)c1ccc(Cl)s1 [Example 33, 5-Chloro-N-[3-(2-pyridin-2-ylethyl)phenyl]thiophene-2-sulfonamide] | 650 nM
